Test results: patent US5885961A, “Methods of using epithelins to modulate cell proliferation” (Bristol-Myers Squibb Company, priority 1995, dated 1999)
Entries after “also recorded” stand apart in the source; their conditions may differ.

Assays:
Balb/MK cells [1] = assay: Murine keratinocyte growth assay (cell count); type: cell-based; conditions: for effect on growth of Balb/MK cells (rodent keratinocytes): FIG. 16A
Procedure: FIG. 16(A-B). (FIG. 16A) Effect of epithelin 1 and epidermal growth factor (EGF) on the growth of Balb/MK cells. Assays were performed as described in Section 6.2., infra. .circle-solid., epithelin 1; o, EGF (FIG. 16B) Effect of various concentrations of epithelin 2 on the epithelin 1 (20 ng/ml) induced growth of murine keratinocytes.
Balb/MK cells were plated at 1×10^4 cells per well in 1 ml of low calcium medium (Weissman and Aaronson, 1983, Cell 32:599-606; Carpenter and Zendegut, 1985, Anal. Biochem. 153:279-282) in 24-well Costar plates and incubated at 37° C. for 4-6 hours. Then media were removed and replaced with 1 ml of medium containing various concentrations of the test compound in triplicate. The control wells received only medium without any test material. The plates were incubated at 37° C. for 4 days, then medium was removed, wells were rinsed two times with 1 ml of phosphate-buffered saline, and the cells were detached with trypsin-EDTA and counted.

NRK-SA6 cells [2] = conditions: in the presence of TGFβ; Roberts et al., 1981; cited from earlier work
NRK cells = assay: Mitogenic activity on NRK cells in monolayer; type: cell-based, rat
EGF receptors = EGF receptors (Homo sapiens, UniProt P00533); assay: Binding of 125I-EGF to its receptors
[3] = tested on: human fibroblasts and several other human tumor cells; assay: 125I-deoxyuridine incorporation into DNA, human fibroblasts and other human tumor cells; type: cell-based; conditions: maximum dose tested: 20 ng/ml epithelin 1, 270 ng/ml epithelin 2
[4] = tested on: A431 human epidermoid carcinoma cells; assay: Cell growth inhibitory activity (GIA), 125I-deoxyuridine incorporation into DNA; type: cell-based
Procedure: The cell growth inhibitory activity (GIA) assays were performed in flat-bottom 96 well plates (Falcon 3072). Human epidermoid carcinoma of vulva cells (A431) were used as test cells for GIA. 3.5×10^3 cells in 50 μl of test medium (DMEM supplemented with 5% heat inactivated fetal bovine serum (FBS), penicillin/streptomycin (PS) and glutamine) were placed in all wells except peripheral wells. The peripheral wells received 50 μl PBS. Three hours later, 50 μl of test sample in test medium was added to each well, while control wells received only 50 μl of test medium. Three wells were used for each concentration of test sample. Plates were incubated at 37° C. for 2-3 days. Then, 100 μl of a solution of […] (^125 I-IUdR, 4Ci/mg-0.5 mCi/ml, 2 μl/ml in test medium) was added to each well and plates were incubated at 37° C. After 4-6 hours, the medium was aspirated from the wells, which were then washed once with 200 μl PBS. Then, 200 μl methanol was added to each well, plates were incubated for 10 minutes at room temperature, and the methanol was removed by aspiration. 200 μl of 1M sodium hydroxide was added to each well, the plates were incubated for 30 minutes at 37° C. Sodium hydroxide was removed with titertek plugs (Flow Labs). The plugs were transferred into 12×75 mm plastic tubes and counted in a gamma counter to quantify ^125 I-IUdR incorporation.

[5] = Resistance of bioactivity to chemical, heat and enzyme treatment; type: physicochemical
Procedure: Epithelin 1 and epithelin 2 are resistant to treatment with 1M acetic acid, 1M ammonium hydroxide, 6M urea, 0.01M sodium metaperiodate, to heating at 56° C. for 30 minutes, and to treatment with various glycosidases or lipases. However, epithelin activity was sensitive to reduction, to reduction and 4-vinylpyridine treatment, and to digestion with proteinases such as trypsin, endoproteinase Lys-C, and endoproteinase Glu-C (V8).

[6] = tested on: human colon carcinoma cell line HCT 116; assay: 125I-deoxyuridine incorporation into DNA, HCT 116; type: cell-based; conditions: maximum dose tested: 20 ng/ml epithelin 1, 270 ng/ml epithelin 2
monkey kidney COS1 cells = assay: 125I-deoxyuridine incorporation into DNA, COS1; type: cell-based
NRK-SA6 cells [7] = assay: Soft agar colony assay in the presence of TGFβ; type: cell-based, rat
Procedure: FIG. 17. Effect of epithelin 1 and 2 on NRK-SA6 cell colony formation in soft agar in the presence of TFGβ (1 ng/ml). The colony formation assay used is described in Section 6.2.3, infra. Solid bars, epithelin 1; stippled bar, epidermal growth factor; open bar, epithelin 2; hatched bar, 20 ng/ml epithelin 1 plus 500 ng/ml epithelin 2.
A 0.38 ml base layer of 0.5% agar (Agar Noble; Difco Laboratories, Detroit, Mich.) in DMEM containing 10% heat inactivated FBS was added to 24 well Costar tissue culture plates. 0.38 ml of 0.3% agar containing the same medium-FBS mixture, 6-12×10^3 test cells, and the test proteins at various concentrations were overlaid on the basal layer of agar. The plates were incubated at 37° C. in a humidified atmosphere of 5% CO2 in air. Colonies were enumerated unfixed and unstained, and the number of colonies was scored between days 7 and 10. Colonies were defined as a cluster of at least eight cells.

Balb/MK cells [8] = assay: Growth stimulatory activity (GSA), 125I-deoxyuridine incorporation into DNA of murine keratinocytes; type: cell-based
Procedure: FIG. 15(A-B). (FIG. 15A) Effect of epithelin 1 and epithelin 2 on the stimulation of ^125 I-deoxyuridine incorporation into DNA of the murine keratinocyte cell line Balb/MK. 2,000-4,000 cells were plated per well in 96 well plates in low-calcium medium containing 5% dialyzed FBS. Then GSA assays were performed as described in Section 6.2., infra. .circle-solid., epithelin 1; o, epithelin 2. (FIG. 15B) Effect of various concentrations of epithelin 2 on epithelin 1 (20 ng/ml) elicited incorporation of ^125 I-deoxyuridine into DNA of Balb/MK cells.
Balb/MK cells were also used as indicator cells in 96 well plates to assess the growth inhibitory activity (GIA) or growth stimulatory activity (GSA) of a test material using ^125 I-deoxyuridine incorporation into DNA as described in the previous section.

mink lung CCL 64 cells = assay: 125I-deoxyuridine incorporation into DNA, CCL 64; type: cell-based

Row | Substance | effect on growth of Balb/MK cells (rodent keratinocytes) (Balb/MK cells [1]) | anchorage-independent growth of rat kidney cells NRK-SA6 (NRK-SA6 cells [2]) | mitogenic activity on NRK cells in monolayer (NRK cells) | IC50 (Balb/MK cells [1]; epithelin 1 20 ng/ml, FIG. 16B, read-out: 50% inhibition of epithelin 1-induced growth of Balb/MK cells) [nM] | effect on binding of 125I-EGF to its receptors (EGF receptors) | effect on human fibroblasts and several other human tumor cells [3] | 50% inhibition of DNA synthesis (125I-deoxyuridine incorporation) ([4]; A431 cells, purified protein, FIG. 14) [ng/well] | IC50 ([4]; A431 cells, read-out: concentration for 50% inhibition of 125I-deoxyuridine incorporation) [nM] | Specific Activity ([4]; final purification step Anal TSK-250 (Table III)) | specific activity of purified protein (GIA) ([4]; one unit = amount inhibiting 125I-deoxyuridine incorporation into A431 cells by 50%) | resistance to 1M acetic acid, 1M ammonium hydroxide, 6M urea, 0.01M sodium metaperiodate, heating at 56° C. for 30 minutes, glycosidases or lipases [5] | sensitivity of activity to reduction, reduction and 4-vinylpyridine treatment, and proteinases (trypsin, Lys-C, Glu-C) [5] | effect on growth of HCT 116 cells [6] | effect on 125I-deoxyuridine incorporation into DNA (monkey kidney COS1 cells) | inhibition of epithelin 1-induced colony formation in soft agar (NRK-SA6 cells [7]; epithelin 2 at ~85 nM, epithelin 1 20 ng/ml) | anchorage-independent growth (colony formation in soft agar) of NRK cells (NRK-SA6 cells [7]; in the presence of TGFβ 1 ng/ml, FIG. 17) | IC50 (Balb/MK cells [8]; Balb/MK cells, epithelin 1 20 ng/ml, FIG. 15B, read-out: 50% inhibition of epithelin 1 elicited 125I-deoxyuridine incorporation) [nM] | effect on 125I-deoxyuridine incorporation into DNA of Balb/MK cells (Balb/MK cells [8]; FIG. 15A) | effect on 125I-deoxyuridine incorporation into DNA (mink lung CCL 64 cells)
1 | EGF: epidermal growth factor, comparison growth factor (NSDSECPLSHDGYCLHDGVCMYIEALDKYACNCVVGYIGERCQYRDLKWWELR; UniProt P01133 971-1023, looked up) [reference compound] | did not proliferate in the absence of EGF or epithelin 1 | induces anchorage-independent growth | – | – | – | – | – | – | – | – | – | – | – | – | – | – | – | – | –
2 | TGFα: transforming growth factor-α | – | induces anchorage-independent growth | – | – | – | – | – | – | – | – | – | – | – | – | – | – | – | – | –
3 | epithelin 2: single chain polypeptide of 57 amino acid residues, 12 cysteines, purified from rat kidney; antagonizes epithelin 1 growth stimulation (VVCPDAKTQCPDDSTCCELPTGKYGCCPMPNAICCSDHLHCCPQDTVCDLIQSKCIS) | did not exhibit any significant effect; also recorded: no effect | – | not | ~7 | Neither epithelin 1 nor epithelin 2 significantly affected the binding | Neither protein exhibited any significant effect | 450 | ~750 | 3,810 Units/mg | 3.8×10^3 units/mg protein | stable; also recorded: resistant | sensitive | did not show any effect | significantly inhibited | about 50% | did not; also recorded: no effect | ~21 | did not show any significant effect | significantly inhibited
